Reference: US6436908B1, “Use of exogenous β-adrenergic receptor and β-adrenergic receptor kinase gene constructs to enhance myocardial function” (Duke University, priority 1995, dated 2002)
Where two headings read alike, the source gives them in different places.

How the values were obtained:
β1-AR = target: T1, β1-AR (Mus musculus, UniProt P34971); assay: ICI 118,551 competition binding against [125I]cyanopindolol, control heart sarcolemmal membranes, low affinity component
T1 construct: Sarcolemmal membranes were prepared from control mouse hearts; from tissue; host or cells: sarcolemmal membranes of control mouse hearts (A3), and of control and TGβK12 mouse hearts (A4)
Method: Myocardial sarcolemmal membranes were prepared by homogenizing whole hearts in ice-cold buffer A [50 mM HEPES (pH 7.3), 150 mM KCl, 5 mM EDTA]. Nuclei and tissue were separated by centrifugation at 800×g for 10 min and the crude supernatant was then centrifuged at 20,000×g for 10 min. The subsequent pellet was resuspended in buffer A and centrifuged at 20,000×g for 10 min. The final pellet was resuspended at a concentration of 2-3 mg protein per ml in buffer B [50 mM HEPES (pH7.3), 5 mM MgCl2].

[1] = tested on: left ventricular function; assay: LV dP/dtmax before and after systemic β2-AR antagonist; type: in vivo, mouse
Excerpt: FIG. 7. Effect of administering β-AR antagonist. […] Asterisks indicate p<0.05, paired Student's T-test.

adenylyl cyclase = type: biochemical, mouse; conditions: for NaF stimulated cyclase activity, mean (±SD): 10 mM NaF; for EC50: read-out: EC50 of isoproterenol-stimulated adenylyl cyclase activity
Method: FIG. 4. Adenylyl Cyclase Activity. Membranes were prepared from TG4 hearts and nontransgenic litter mate control hearts as described in FIG. 2. […] Each point on the graph represents the mean±SEM of seven independent experiments each performed in duplicate.
The inotropic response resulting from myocardial β-AR stimulation is mediated through activation of adenylyl cyclase and the intracellular second messenger cAMP. To assess whether the myocardium of transgenic animals overexpressing β2-AR had enhanced adenylyl cyclase activity, myocardial membranes were incubated with [^32P]ATP and the rate of cAMP formation was measured.

isolated atria = assay: Isometric tension development in isolated atria; parameters: species or system mouse; conditions: TG4 atria, doses maximally stimulating controls
Method: FIGS. 5A-C. Baseline and maximally stimulated responses in isolated atria. Atria were suspended under optimal resting tension in modified Kreb's bicarbonate solution at 30° C. […]. Data are shown as the mean values±SEM for control animals (n=7 or 8) and TG4 animals (n=5 or 6). In all three responses, the baseline values for the TG4 animals were greater than the baseline in the control animals (* P<0.05 Student's t-test), but not different from either control isoproterenol-stimulated values or from TG4 isoproterenol-stimulated values.
To directly assess the effect of β2-AR overexpression on myocardial inotropy, isometric tension development was determined in isolated, perfused atria. […] In the left atria, basal tension was approximately three times that of the control levels. Baseline isometric tension in the transgenics was not different from the maximal isoproterenol-stimulated tension in control atria. […] To eliminate the possibility that this increased rate might be contributing to the increased tension measured in the transgenic myocardium, experiments were conducted to assess the relationship of rate to developed tension. From a rate of 240 to 360 beats/min. […] All atria studied were weighed, and no significant differences were noted between transgenic and control weights.

[2] = tested on: left ventricular function; assay: In vivo assessment of left ventricular function, TG4 and control mice; parameters: species or system mouse
[3] = tested on: left ventricular function; assay: In vivo assessment of left ventricular function, TGβK12 and TGMini27 mice; parameters: species or system mouse; conditions: for mean LV dP/dtmax (maximum contractility): 500 pg isoproterenol; for mean LV dP/dtmin (maximum LV relaxation): 1000 pg isoproterenol
Method: FIG. 12. In vivo assessment of left ventricular function of TGβK12 (n=10) and nontransgenic control mice (n=10). Animals were anesthetized and aortic and left ventricular catheters placed (28). […]; (B) LV dP/dtmin; (C) heart rate (HR); and (D) LV systolic pressure. Data are reported as means±SEM and were analyzed with a two way analysis of variance (ANOVA) with post hoc testing performed using Scheffe's F test (*, P<0.05). […]; (B) dP/dtmin, P<0.05; (C) HR, P<0.01 but not (D) LV systolic pressure, P=ns.
FIG. 13. In vivo assessment of left ventricular function of TGMini27 (n=7) and nontransgenic control mice (n=7). Mice were treated as in FIG. 4 (28) and four parameters are shown; (A) LV dP/dtmax,; (B) LV dP/dtmin; (C) HR; and (D) LV systolic pressure. Data are reported as mean±SEM and were analyzed as in FIG. 4 (*, P<0.05). […]; (B) dP/dtmin, P<0.005; and (D) LV systolic pressure, P<0.005.
Mice were anesthetized with a mixture of ketamine and xylazine (Milano et al., Science 264, 582 (1994)). A cervical incision was made, the trachea intubated and the animal connected to a volume-cycled ventilator. A carotid artery was then cannulated with a flamestretched PE 50 catheter connected to a modified P50 statham transducer. […]. Continuous pressures were recorded on an eight channel chart recorder and in digitized form on computer disk for beat averaging. Ten sequential beats were averaged for each measurement.

Gβγ [4] = assay: cell-based or functional assay
Gβγ [5] = target: Gβγ
βARK = assay: GRK activity of heart extracts, rhodopsin phosphorylation assay; type: biochemical, mouse; conditions: TGMini27 heart extracts, 50 μg protein, ~10 pmoles Gβγ, n=5

T1 sequence (P34971 whole entry): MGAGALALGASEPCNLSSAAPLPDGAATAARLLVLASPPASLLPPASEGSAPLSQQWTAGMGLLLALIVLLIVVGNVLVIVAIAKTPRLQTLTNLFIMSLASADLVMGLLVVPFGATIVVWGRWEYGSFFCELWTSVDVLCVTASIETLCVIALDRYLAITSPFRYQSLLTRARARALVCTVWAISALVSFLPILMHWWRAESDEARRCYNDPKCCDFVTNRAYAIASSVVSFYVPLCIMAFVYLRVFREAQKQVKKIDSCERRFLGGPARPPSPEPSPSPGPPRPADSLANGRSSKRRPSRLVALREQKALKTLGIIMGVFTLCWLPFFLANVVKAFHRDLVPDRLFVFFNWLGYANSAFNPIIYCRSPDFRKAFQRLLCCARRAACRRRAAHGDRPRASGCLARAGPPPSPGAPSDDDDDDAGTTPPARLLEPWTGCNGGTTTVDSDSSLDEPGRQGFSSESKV

Molecule: Cc1ccc(OCC(O)C(C)NC(C)C)c2c1CCC2 (stereo not shown) [ICI 118,551]
- Ki (β1-AR): 390 nM
- effect on the β1-AR binding component (β1-AR; 75 nM ICI 118,551): insignificantly affecting
- share of low affinity binding population (β1 subtype) (β1-AR; control mouse heart sarcolemmal membranes): 75%
- change in elevated baseline LV dP/dtmax ([1]; TG4 transgenic mice, 5 μg systemic, four minutes after administration): Marked decreases
- change in LV dP/dtmax ([1]; control animals): no significant change

Molecule: [F-].[Na+] [NaF]
- NaF stimulated cyclase activity, mean (±SD) (adenylyl cyclase; control membranes): 606.4±207.8 pmol cAMP/min/mg protein
- NaF stimulated cyclase activity, mean (±SD) (adenylyl cyclase; transgenic (TG4) membranes): 445.5±165.5 pmol cAMP/min/mg protein

Molecule: CC(C)NCC(O)c1ccc(O)c(O)c1 (stereo not shown) [isoproterenol]
- EC50 (adenylyl cyclase; TG4 heart membranes): 22 nM
- EC50 (adenylyl cyclase; nontransgenic control heart membranes): 160 nM
- inotropic response of atria (isometric tension) (isolated atria): no further inotropic response
- change in LV dP/dtmax ([2]; control animals, isoproterenol infusion): progressive increases
- effect on blood pressure ([2]; doses greater than 1 nanogram): significant lowering of blood pressure
- left ventricular responses to isoproterenol ([3]; TGMini27 mice versus controls): markedly enhanced
- mean LV dP/dtmax (maximum contractility) ([3]; TGMini27 mice): 10,821 mm Hg per sec
- mean LV dP/dtmin (maximum LV relaxation) ([3]; TGMini27 mice): −8071 mm Hg per second
- inotropic and chronotropic responses to isoproterenol ([3]; TGβK12 animals versus controls): significantly reduced
- mean LV dP/dtmax (maximum contractility) ([3]; TGβK12 mice): 6457 mm Hg per sec
- mean LV dP/dtmin (maximum LV relaxation) ([3]; TGβK12 mice): −4350 mm Hg per second

Molecule: βARK1-(495-689) Minigene (from UniProt P21146 495-689)
- stimulation of rhodopsin phosphorylation upon addition of Gβγ (~10 pmoles), heart extracts from TGMini27 mice (fold over basal) (Gβγ [4]): 2.16

B1: myocardial βARK (protein)
chain: MADLEAVLADVSYLMAMEKSKATPAARASKKILLPEPSIRSVMQKYLEDRGEVTFEKIFSQKLGYLLFRDFCLNHLEEAKPLVEFYEEIKKYEKLETEEERVVRSREIFDSYIMKELLACSHPFSKNATEHVQGHLVKKQVPPDLFQPYIEEICQNLRGDVFQKFIESDKFTRFCQWKNVELNIHLTMNDFSVHRIIGRGGFGEVYGCRKADTGKMYAMKCLDKKRIKMKQGETLALNERIMLSLVSTGDCPFIVCMSYAFHTPDKLSFILDLMNGGDLHYHLSQHGVFSEADMRFYAAEIILGLEHMHNRFVVYRDLKPANILLDEHGHVRISDLGLACDFSKKRPHASVGTHGYMAPEVLQKGVAYDSSADWFSLGCMLFKLLRGHSPFRQHKTKDKHEIDRMTLTMAVELPDSFSPELRSLLEGLLQRDVNRRLGCLGRGAQEVKESPFFRSLDWQMVFLQKYPPPLIPPRGEVNAADAFDIGSFDEEDTKGIKLLDSDQELYRNFPLTISERWQQEVAETVFDTINAETDRLEARKKAKNKQLGHEEDYALGKDCIVHGYMSKMGNPFLTQWQRRYFYLFPNRLEWRGEGEAPQSLLTMEEIQSVEETQIKERKCLLLKIRGGKQFVLQCDSDPELVQWKKELRDAYREAQQLVQRVPKMKNKPRSPVVELSKVPLIQRGSANGL
- stimulation of rhodopsin phosphorylation upon addition of Gβγ (~10 pmoles), control heart extracts (Gβγ [5]): 3.02±0.31 fold over basal, n=5

B2: βARK1-(495-689) Minigene: coding sequence for the last 194 amino acids of bovine βARK1; expressed soluble protein, in vivo βARK inhibitor (protein)
chain: GIKLLDSDQELYRNFPLTISERWQQEVAETVFDTINAETDRLEARKKTKNKQLGHEEDYALGKDCIMHGYMSKMGNPFLTQWQRRYFYLFPNRLEWRGEGEAPQSLLTMEEIQSVEETQIKERKCLLLKIRGGKQFVLQCDSDPELVQWKKELRDAYREAQQLVQRVPKMKNKPRSPVVELSKVPLIQRGSANGL
- baseline LV dP/dtmax, LV dP/dtmin and LV systolic pressure compared to control animals ([3]; TGMini27 mice, baseline): statistically elevated
- stimulation of rhodopsin phosphorylation by Gβγ (βARK): 2.16±0.12 fold over basal
